In ChEMBL document CHEMBL1122769, “Mesoionic xanthine analogues: antagonists of adenosine receptors” (J Med Chem, 1984):

Experiments:
Adenosine receptor A1 = biological target: T1, Adenosine receptor A1 (Rattus norvegicus, UniProt P25099); experiment: Antagonism of adenosine A1 receptor assessed from the ability to inhibit binding of [3H]cyclohexyladenosine to rat cerebral cortical membranes; assay type: cell membranes, Membrane
T1 sequence (P25099 whole entry): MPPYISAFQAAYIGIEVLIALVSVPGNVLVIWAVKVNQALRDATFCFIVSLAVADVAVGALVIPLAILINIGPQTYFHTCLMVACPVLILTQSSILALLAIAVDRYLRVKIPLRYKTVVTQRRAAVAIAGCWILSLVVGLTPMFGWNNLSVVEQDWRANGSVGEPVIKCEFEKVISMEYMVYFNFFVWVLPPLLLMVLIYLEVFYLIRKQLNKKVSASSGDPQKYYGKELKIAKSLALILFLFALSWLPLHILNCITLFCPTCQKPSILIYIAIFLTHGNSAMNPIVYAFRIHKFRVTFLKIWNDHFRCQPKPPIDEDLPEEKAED

Cavia porcellus = organism: Cavia porcellus; experiment: Ability to inhibit 2-chloroadenosine (15 uM)-elicited accumulations of cyclic AMP in guinea pig cerebral cortical slices

Row | IC50 (Adenosine receptor A1) [µM] | IC50 (Cavia porcellus) [µM] | Compound
1 | 54 | 250 | CCCC1C(=O)N2C=CSC2N(CCC)C1=O (configuration not stated)
2 | 100 | 120 | CCC1C(=O)N2C=CSC2N(CC2CC2)C1=O (configuration not stated)
3 | 160 | 200 | O=C1C(Cc2ccccc2)C(=O)N(CC2CC2)C2SC=CN12 (configuration not stated)
4 | 95 | 250 | CCC1C(=O)N2C=CSC2N(Cc2cc(OC)cc(OC)c2)C1=O (configuration not stated)
5 | 45 | > 250 | CCN1C(=O)C(Cc2ccc(Cl)cc2)C(=O)N2N=CSC12 (configuration not stated)
6 | 27 | 30 | CCC1C(=O)N2C=Cc3ccccc3C2N(CC)C1=O (configuration not stated)
7 | 80 | 250 | CCC1C(=O)N(CC)C2SC(c3ccccc3)=NN2C1=O (configuration not stated)
8 | 30 | 20 | CCCC1C(=O)N(CC(C)C)C2Sc3ccccc3N2C1=O (configuration not stated)
9 | 72 | > 250 | CCC1C(=O)N(CC)C2SC=NN2C1=O (configuration not stated)
10 | 160 | 150 | CCC1C(=O)N2C=CSC2N(Cc2ccccc2)C1=O (configuration not stated)
11 | 41 | 15 | CCC1C(=O)N(CC(C)C)C2Sc3ccccc3N2C1=O (configuration not stated)
12 | 58 | > 200 | CCN1C(=O)C(Cc2ccccc2)C(=O)N2N=CSC12 (configuration not stated)
13 | 120 | 150 | CCC1C(=O)N2C=CSC2N(CC)C1=O (configuration not stated)

Continued, compound first:

Row | Compound | IC50 (Adenosine receptor A1) [µM] | IC50 (Cavia porcellus) [µM]
14 | CCCCCN1C(=O)C(C)C(=O)N2N=CSC12 (configuration not stated) | 120 | > 250
15 | O=c1c2[nH]cnc2n(Cc2ccccc2)c(=O)n1Cc1ccccc1 | 7 | 35
16 | CCN1C(=O)C(C)C(=O)N2N=CSC12 (configuration not stated) | 60 | > 250
17 | CCCn1c(=O)c2nc[nH]c2n(CCC)c1=O | 1.5 | 8.1
18 | Cn1c(=O)c2nc(-c3ccccc3)[nH]c2n(C)c1=O [8-PHENYL THEOPHYLLINE] | – | 1.65
19 | CCN1C(=O)CC(=O)N2N=CSC12 (configuration not stated) | 110 | > 250
20 | CCn1c(=O)c2nc[nH]c2n(CC)c1=O | 6.4 | 12
21 | CCCC1C(=O)N(C)C2N(C)C=NN2C1=O (configuration not stated) | > 250 | > 250
22 | Cn1c(=O)c2c(ncn2C)n(C)c1=O [CAFFEINE] | – | 150
23 | CCC1C(=O)SC2N(C)C=CN2C1=O (configuration not stated) | 290 | > 250
24 | Cn1c(=O)c2nc[nH]c2n(C)c1=O [THEOPHYLLINE] | – | 42
25 | CCC1C(=O)N(CC)C2SC(C)=NN2C1=O (configuration not stated) | 500 | > 250
